From US12528815B2, “5-amino-8-(4-pyridyl)-[1,2,4]triazolo[4,3-c]pyrimidin-3-one compounds for use against cancer” (Nxera Pharma UK Limited, priority 2020, dated 2026)

Assays:
[1] = target: T1, human adenosine A1 receptor (Homo sapiens, UniProt P30542); test: Inhibition binding assay, human adenosine A1 receptor membranes, [3H]DPCPX; conditions: 1 nM [3H]DPCPX, 25° C., 1 h; IC50 converted to Ki with Cheng-Prusoff; read-out: A1 pKi (converted)
T1 construct: expressed in transfected cells; host or cells: HEK293 cells infected with BacMam (the same paragraph also labels the preparation CHO-hA1)
T1 sequence (P30542 1-326): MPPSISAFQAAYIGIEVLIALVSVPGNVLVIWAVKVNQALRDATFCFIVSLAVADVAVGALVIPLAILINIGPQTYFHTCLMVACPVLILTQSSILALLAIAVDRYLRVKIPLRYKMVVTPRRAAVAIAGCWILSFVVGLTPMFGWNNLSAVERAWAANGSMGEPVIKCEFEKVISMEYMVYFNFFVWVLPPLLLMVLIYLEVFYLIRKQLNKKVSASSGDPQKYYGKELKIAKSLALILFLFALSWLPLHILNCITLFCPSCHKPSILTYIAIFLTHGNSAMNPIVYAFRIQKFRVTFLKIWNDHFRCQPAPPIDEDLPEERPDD
Procedure, shortened: (§1)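 Membranes from BacMam-infected HEK293 cells (0.2 μg A2A, 1.4 μg A1) incubated 1 h at 25° C with test compound and 1 nM [3H]ZM241385 (A2A; 50 mM Tris-HCl pH 7.4) or [3H]DPCPX (A1; plus 100 mM NaCl, 10 mM MgCl2). Nonspecific: 1 μM CGS15943 or DPCPX. Filtration, scintillation; IC50 converted to Ki via Cheng-Prusoff.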

[2] = target: T2, human adenosine A2A receptor (Homo sapiens, UniProt P29274); test: Inhibition binding assay, human adenosine A2A receptor membranes, [3H]ZM241385; conditions: 1 nM [3H]ZM241385, HEK293-hA2A membranes, 25° C., 1 h; IC50 converted to Ki with Cheng-Prusoff; read-out: A2A pKi (converted)
T2 construct: expressed in transfected cells; host or cells: HEK293 cells infected with BacMam
T2 sequence (P29274 whole entry): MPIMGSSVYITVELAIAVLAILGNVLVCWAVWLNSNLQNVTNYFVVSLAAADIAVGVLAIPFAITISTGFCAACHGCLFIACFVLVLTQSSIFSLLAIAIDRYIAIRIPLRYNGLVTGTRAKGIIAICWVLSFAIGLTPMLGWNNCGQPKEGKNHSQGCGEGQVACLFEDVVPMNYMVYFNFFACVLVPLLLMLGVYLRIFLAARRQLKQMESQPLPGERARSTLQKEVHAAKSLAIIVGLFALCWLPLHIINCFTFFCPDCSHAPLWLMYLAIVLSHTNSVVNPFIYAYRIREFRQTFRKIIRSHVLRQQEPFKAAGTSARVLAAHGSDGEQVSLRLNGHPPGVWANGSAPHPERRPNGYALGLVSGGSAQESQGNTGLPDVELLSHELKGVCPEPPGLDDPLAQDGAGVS
Procedure, shortened: as §1

human CB1 receptor = target: T3, human CB1 receptor (Homo sapiens, UniProt P21554); test: CB1 receptor antagonism, agonist-induced cAMP modulation (HTRF) in transfected CHO cells; format: cell-based; conditions: read-out: Antag IC50
T3 construct: expressed in transfected cells; host or cells: CHO cells
T3 sequence (P21554 whole entry): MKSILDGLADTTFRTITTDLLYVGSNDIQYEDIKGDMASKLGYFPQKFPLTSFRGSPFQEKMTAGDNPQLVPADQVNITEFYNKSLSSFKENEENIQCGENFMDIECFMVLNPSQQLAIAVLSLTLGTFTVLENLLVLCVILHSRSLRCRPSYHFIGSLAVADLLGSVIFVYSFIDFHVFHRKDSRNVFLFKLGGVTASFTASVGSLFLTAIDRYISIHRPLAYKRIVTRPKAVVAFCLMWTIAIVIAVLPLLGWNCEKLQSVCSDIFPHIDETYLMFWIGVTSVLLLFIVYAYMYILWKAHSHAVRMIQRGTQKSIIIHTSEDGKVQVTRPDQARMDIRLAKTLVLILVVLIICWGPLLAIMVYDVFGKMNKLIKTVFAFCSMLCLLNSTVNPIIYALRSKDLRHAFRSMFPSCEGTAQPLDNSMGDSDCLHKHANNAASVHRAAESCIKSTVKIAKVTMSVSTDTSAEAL
Description: Receptor antagonism: Evaluation of the antagonist activity of compounds at the human CB1 receptor expressed in transfected CHO cells, determined by measuring their effects on agonist-induced cAMP modulation using the HTRF detection method.
Thereafter, the reference agonist CP 55940 and the adenylyl cyclase activator NKH 477 are added at respective final concentrations of 3 nM and 3 μM.
For basal control measurements, CP 55940 is omitted from the wells containing 3 μM AM 281.
Following 20 min incubation at 37° C., the cells are lysed and the fluorescence acceptor (D2-labeled cAMP) and fluorescence donor (anti-cAMP antibody labeled with europium cryptate) are added.
After 60 min at room temperature, the fluorescence transfer is measured at λex=337 nm and λem=620 and 665 nm using a microplate reader (Rubystar, BMG). The cAMP concentration is determined by dividing the signal measured at 665 nm by that measured at 620 nm (ratio).
The standard reference antagonist is AM 281, which is tested in each experiment at several concentrations to generate a concentration-response curve from which its IC50 value is calculated.

[3] = target: T4, human CB-1 cannabinoid receptor (Homo sapiens, UniProt P21554); test: CB1 receptor radioligand binding assay, [3H]CP 55940, transfected CHO cell membranes; conditions: 0.5 nM [3H]CP 55940, CHO membrane homogenates, 120 min at 37° C.
T4 construct: expressed in transfected cells; host or cells: CHO cells
T4 sequence (P21554 whole entry): as above
Description: Nonspecific binding is determined in the presence of 10 μM WIN 55212-2.
Following incubation, the samples are filtered rapidly under vacuum through glass fiber filters (GF/B, Packard) presoaked with 0.3% PEI and rinsed several times with an ice-cold buffer containing 50 mM Tris-HCl (pH 7.4) and 0.5% BSA using a 96-sample cell harvester (Unifilter, Packard). The filters are dried then counted for radioactivity in a scintillation counter (Topcount, Packard) using a scintillation cocktail (Microscint 0, Packard).
The standard reference compound is CP 55940 which is tested in each experiment at several concentrations to obtain a competition curve from which its IC50 is calculated.

Row | Ki [1] [nM] | Ki [2] [nM] | IC50 (human CB1 receptor) [µM] | Ki [3] [µM] | Structure (SMILES)
1 | 31.6 | 0.398 | 1.7 | 3.6 | Cc1cc(-c2c(-c3ccccc3)nc(N)n3c(=O)n(Cc4ccc(F)cc4)nc23)cc(C)n1 [Example 1-1, 5-amino-8-(2,6-dimethyl-4-pyridyl)-2-[(4-fluorophenyl)methyl]-7-phenyl-[1,2,4]triazolo[4,3-c]pyrimidin-3-one]
2 | 316 | 0.794 | > 4.9 | 20.1 | Cc1cc(-c2c(-c3ccccc3)nc(N)n3c(=O)n(Cc4ccc(F)cn4)nc23)cc(C)n1 [Example 1-2, 5-amino-8-(2,6-dimethyl-4-pyridyl)-2-[(5-fluoro-2-pyridyl)methyl]-7-phenyl-[1,2,4]triazolo[4,3-c]pyrimidin-3-one]
3 | 398 | 6.31 | 5 | 2.6 | Cc1cc(-c2c(-c3ccccc3)nc(N)n3c(=O)n(C(C)c4ccc(F)cc4F)nc23)cc(C)n1 (stereo not shown) [Example 1-11, 5-amino-2-[1-(2,4-difluorophenyl)ethyl]-8-(2,6-dimethyl-4-pyridyl)-7-phenyl-[1,2,4]triazolo[4,3-c]pyrimidin-3-one]
4 | 39.8 | 0.794 | 7.4 | 24.1 | COc1ncc(F)cc1Cn1nc2c(-c3cc(C)nc(C)c3)c(-c3ccccc3)nc(N)n2c1=O [Example 1-40, 5-amino-8-(2,6-dimethyl-4-pyridyl)-2-[(5-fluoro-2-methoxy-3-pyridyl)methyl]-7-phenyl-[1,2,4]triazolo[4,3-c]pyrimidin-3-one]
5 | 398 | 2.51 | 43.1 | 45.6 | Cc1cc(-c2c(-c3ccc(F)cc3)nc(N)n3c(=O)n(Cc4cccnn4)nc23)cc(C)n1 [Example 1-41, 5-amino-8-(2,6-dimethyl-4-pyridyl)-7-(4-fluorophenyl)-2-(pyridazin-3-ylmethyl)-[1,2,4]triazolo[4,3-c]pyrimidin-3-one]
6 | 251 | 15.8 | > 100 | 73.4 | Cc1cc(-c2c(-c3ccccc3)nc(N)n3c(=O)n(Cc4ccc(F)cn4)nc23)cc(C)[n+]1[O-] [Example 1-42, 5-amino-8-(2,6-dimethyl-1-oxido-pyridin-1-ium-4-yl)-2-[(5-fluoro-2-pyridyl)methyl]-7-phenyl-[1,2,4]triazolo[4,3-c]pyrimidin-3-one]
7 | 398 | 1.58 | 63.3 | 40 | Cc1cc(-c2c(-c3ccccc3)nc(N)n3c(=O)n(Cc4ccc(F)cn4)nc23)cc(CO)n1 [Example 1-44, 5-amino-2-[(5-fluoro-2-pyridyl)methyl]-8-[2-(hydroxymethyl)-6-methyl-4-pyridyl]-7-phenyl-[1,2,4]triazolo[4,3-c]pyrimidin-3-one]
8 | 501 | 0.631 | 39.4 | 46.1 | Cc1ccc(Cn2nc3c(-c4cc(C)nc(CO)c4)c(-c4ccccc4)nc(N)n3c2=O)nc1 [Example 1-52, 5-amino-8-[2-(hydroxymethyl)-6-methyl-4-pyridyl]-2-[(5-methyl-2-pyridyl)methyl]-7-phenyl-[1,2,4]triazolo[4,3-c]pyrimidin-3-one]
9 | 126 | 0.631 | > 100 | 62.6 | COc1ncccc1Cn1nc2c(-c3cc(C)nc(CO)c3)c(-c3ccccc3)nc(N)n2c1=O [Example 1-57, 5-amino-8-[2-(hydroxymethyl)-6-methyl-4-pyridyl]-2-[(2-methoxy-3-pyridyl)methyl]-7-phenyl-[1,2,4]triazolo[4,3-c]pyrimidin-3-one]
10 | 158 | 0.316 | > 100 | 23.5 | COc1cc(-c2c(-c3ccccc3)nc(N)n3c(=O)n(Cc4ccc(F)c(N)n4)nc23)cc(CO)n1 [Example 1-64, 5-amino-2-[(6-amino-5-fluoro-2-pyridyl)methyl]-8-[2-(hydroxymethyl)-6-methoxy-4-pyridyl]-7-phenyl-[1,2,4]triazolo[4,3-c]pyrimidin-3-one]
11 | 501 | 15.8 | > 100 | – | CCOC(=O)N(C)CCn1nc2c(-c3cc(C)nc(C)c3)c(-c3ccccc3)nc(N)n2c1=O [Example 2-13, ethyl N-[2-[5-amino-8-(2,6-dimethyl-4-pyridyl)-3-oxo-7-phenyl-[1,2,4]triazolo[4,3-c]pyrimidin-2-yl]ethyl]-N-methyl-carbamate]
12 | 79.4 | 1.26 | – | 18.8 | COc1ccc(-c2nc(N)n3c(=O)n(CCC(F)(F)F)nc3c2-c2cc(C)nc(C)c2)cc1 [Example 2-35, 5-amino-8-(2,6-dimethyl-4-pyridyl)-7-(4-methoxyphenyl)-2-(3,3,3-trifluoropropyl)-[1,2,4]triazolo[4,3-c]pyrimidin-3-one]
13 | > 3160 | 31.6 | > 100 | – | Cc1cc(-c2c(-c3ccccn3)nc(N)n3c(=O)n(CCC(F)(F)F)nc23)cc(C)n1 [Example 2-37, 5-amino-8-(2,6-dimethyl-4-pyridyl)-7-(2-pyridyl)-2-(3,3,3-trifluoropropyl)-[1,2,4]triazolo[4,3-c]pyrimidin-3-one]
14 | – | 1 | > 100 | 61 | COc1cc(-c2c(-c3ccccc3)nc(N)n3c(=O)n(CCC(F)(F)F)nc23)cc(CO)n1 [Example 2-46, 5-amino-8-[2-(hydroxymethyl)-6-methoxy-4-pyridyl]-7-phenyl-2-(3,3,3-trifluoropropyl)-[1,2,4]triazolo[4,3-c]pyrimidin-3-one]
15 | 316 | 12.6 | > 100 | – | Cc1cc(-c2c(-c3ccccc3)nc(N)n3c(=O)n(CCC(F)(F)F)nc23)cc(C)[n+]1[O-] [Example 2-56, 5-amino-8-(2,6-dimethyl-1-oxido-pyridin-1-ium-4-yl)-7-phenyl-2-(3,3,3-trifluoropropyl)-[1,2,4]triazolo[4,3-c]pyrimidin-3-one]
16 | > 1260 | 1.58 | 37.4 | – | Cc1cc(-c2c(-c3ccc(F)cc3)nc(N)n3c(=O)n(CCC(F)(F)F)nc23)cc(CO)n1 [Example 2-64, 5-amino-7-(4-fluorophenyl)-8-[2-(hydroxymethyl)-6-methyl-4-pyridyl]-2-(3,3,3-trifluoropropyl)-[1,2,4]triazolo[4,3-c]pyrimidin-3-one]
17 | 1000 | 6.31 | > 100 | – | Cc1cc(-c2c(-c3ccccc3)nc(N)n3c(=O)n(C[C@H]4CNCCO4)nc23)cc(C)n1 [Example 2-66, (R)-5-amino-8-(2,6-dimethylpyridin-4-yl)-2-(morpholin-2-ylmethyl)-7-phenyl-[1,2,4]triazolo[4,3-c]pyrimidin-3(2H)-one]
18 | 200 | 7.94 | > 100 | – | Cc1cc(-c2c(-c3ccccc3)nc(N)n3c(=O)n(C[C@@H]4COCCN4C)nc23)cc(C)n1 [Example 2-80, 5-amino-8-(2,6-dimethyl-4-pyridyl)-2-[[(3R)-4-methylmorpholin-3-yl]methyl]-7-phenyl-[1,2,4]triazolo[4,3-c]pyrimidin-3-one]
19 | > 3160 | 126 | > 100 | – | CCN(C)c1nc(N)n2c(=O)n(CCC(F)(F)F)nc2c1-c1cc(C)nc(C)c1 [Example 3-4, 5-amino-8-(2,6-dimethyl-4-pyridyl)-7-[ethyl(methyl)amino]-2-(3,3,3-trifluoropropyl)-[1,2,4]triazolo[4,3-c]pyrimidin-3-one]
